Assay results published in ChEMBL document CHEMBL1126257, “Fluoronaphthyridines and -quinolones as antibacterial agents. 5. Synthesis and antimicrobial activity of chiral 1-tert-butyl-6-fluoro-7-substituted-naphthyridones” (J Med Chem, 1992).
In brackets after ≈: the same amount, converted by molar mass.

What was measured:
Enterococcus faecium = assay: In vitro antibacterial activity against Enterococcus faecium A 24885.; format: functional
Pseudomonas aeruginosa [1] = assay: In vitro antibacterial activity against Pseudomonas aeruginosa A 9243.; format: functional
Enterobacter cloacae = assay: In vitro antibacterial activity against Enterobacter cloacae A 9656.; format: functional
Enterococcus faecalis = assay: In vitro antibacterial activity against Enterococcus faecalis A9809.; format: functional
Serratia marcescens = assay: In vitro antibacterial activity against Serratia marcescens A 20019.; format: functional
Staphylococcus aureus [2] = assay: In vitro antibacterial activity against Staphylococcus aureus A9537.; format: functional
Escherichia coli [3] = assay: In vitro antibacterial activity against Escherichia coli A 15119.; format: functional
Morganella morganii = assay: In vitro antibacterial activity against Morganella morganii A 15153.; format: functional
Klebsiella pneumoniae [4] = assay: In vitro antibacterial activity against Klebsiella pneumoniae A 9664.; format: functional
Escherichia coli [5] = assay: In vivo potency on systemic infection caused Escherichia coli A 15119 by after oral administration to mice expressed as median protective dose.; format: functional; details: read-out: PD50
Klebsiella pneumoniae [6] = assay: In vivo potency on systemic infection caused by Klebsiella pneumoniae A 9664 after oral administration to mice expressed as median protective dose.; format: functional; details: read-out: PD50
Klebsiella pneumoniae [7] = assay: (§1) In vivo potency on systemic infection caused by after oral administration to mice expressed as median protective dose.; format: functional; details: read-out: PD50
Escherichia coli [8] = assay: as §1; format: functional; details: read-out: PD50
Pseudomonas aeruginosa [9] = assay: as §1; format: functional; details: read-out: PD50
Staphylococcus aureus [10] = assay: animal or person; details: in Mus musculus, po, read-out: PD50
Description: In vivo potency on systemic infection caused by Staphylococcus aureus A9537 after oral administration to mice expressed as median protective dose.

in vivo = details: mouse, po, 50 mg/kg
[11] = Enterococcus faecium, read-out: MIC
[12] = Pseudomonas aeruginosa, read-out: MIC
[13] = Enterobacter cloacae, read-out: MIC
[14] = Enterococcus faecalis, read-out: MIC
[15] = Serratia marcescens, read-out: MIC
[16] = Staphylococcus aureus, read-out: MIC
[17] = Escherichia coli, read-out: MIC
[18] = Morganella morganii, read-out: MIC
[19] = Klebsiella pneumoniae, read-out: MIC

MIC (Enterococcus faecium; [11]) [µg/mL]	MIC (Pseudomonas aeruginosa [1]; [12]) [µg/mL]	MIC (Enterobacter cloacae; [13]) [µg/mL]	MIC (Enterococcus faecalis; [14]) [µg/mL]	MIC (Serratia marcescens; [15]) [µg/mL]	MIC (Staphylococcus aureus [2]; [16]) [µg/mL]	MIC (Escherichia coli [3]; [17]) [µg/mL]	Compound	MIC (Morganella morganii; [18]) [µg/mL]	MIC (Klebsiella pneumoniae [4]; [19]) [µg/mL]	ED50 (Klebsiella pneumoniae [7]) [mg/kg]	ED50 (Escherichia coli [8]) [mg/kg]	ED50 (Pseudomonas aeruginosa [9]) [mg/kg]	ED50 (Staphylococcus aureus [10]) [mg/kg]	further results
4 (≈ 10.6 µM)	4 (≈ 10.6 µM)	0.25 (≈ 0.664 µM)	4 (≈ 10.6 µM)	0.25 (≈ 0.664 µM)	0.03 (≈ 0.0797 µM)	0.06 (≈ 0.159 µM)	CC1(C)CN(c2nc3c(cc2F)c(=O)c(C(=O)O)cn3C(C)(C)C)C[C@@H]1N	0.25 (≈ 0.664 µM)	0.25 (≈ 0.664 µM)					
4 (≈ 10.6 µM)	2 (≈ 5.31 µM)	0.03 (≈ 0.0797 µM)	0.5 (≈ 1.33 µM)	1 (≈ 2.66 µM)	0.03 (≈ 0.0797 µM)	0.015 (≈ 0.0398 µM)	CN(C)[C@H]1CCN(c2nc3c(cc2F)c(=O)c(C(=O)O)cn3C(C)(C)C)C1		0.06 (≈ 0.159 µM)					
8 (≈ 22.1 µM)	1 (≈ 2.76 µM)	0.13 (≈ 0.359 µM)	1 (≈ 2.76 µM)	0.5 (≈ 1.38 µM)	0.03 (≈ 0.0828 µM)	0.06 (≈ 0.166 µM)	CN[C@@H]1CCN(c2nc3c(cc2F)c(=O)c(C(=O)O)cn3C(C)(C)C)C1	0.5 (≈ 1.38 µM)	0.13 (≈ 0.359 µM)					
8 (≈ 21.3 µM)	1 (≈ 2.66 µM)	1 (≈ 2.66 µM)	1 (≈ 2.66 µM)	1 (≈ 2.66 µM)	0.03 (≈ 0.0797 µM)	0.25 (≈ 0.664 µM)	CN(C)C1CCN(c2nc3c(cc2F)c(=O)c(C(=O)O)cn3C(C)(C)C)C1 (stereo unspecified)	0.5 (≈ 1.33 µM)	0.13 (≈ 0.345 µM)					
							C[C@@H]1C[C@@H](N)CN1c1nc2c(cc1F)c(=O)c(C(=O)O)cn2C(C)(C)C (stereo in doubt; 67)							MIC (Enterococcus faecium): 8 µg/mL (≈ 22.1 µM); MIC (Pseudomonas aeruginosa [1]): 16 µg/mL (≈ 44.1 µM); MIC (Enterobacter cloacae): 0.5 µg/mL (≈ 1.38 µM); MIC (Enterococcus faecalis): 1 µg/mL (≈ 2.76 µM); MIC (Serratia marcescens): 2 µg/mL (≈ 5.52 µM); MIC (Staphylococcus aureus [2]): 0.13 µg/mL (≈ 0.359 µM); MIC (Escherichia coli [3]): 0.25 µg/mL (≈ 0.69 µM); MIC (Morganella morganii): 4 µg/mL (≈ 11 µM); MIC (Klebsiella pneumoniae [4]): 0.5 µg/mL (≈ 1.38 µM)
							C[C@@H]1C[C@@H](N)CN1c1nc2c(cc1F)c(=O)c(C(=O)O)cn2C(C)(C)C (stereo in doubt; 68)		0.5 (≈ 1.38 µM)	8.2	2.6	14.4	0.9	MIC (Enterococcus faecium): 0.5 µg/mL (≈ 1.38 µM); MIC (Pseudomonas aeruginosa [1]): 0.5 µg/mL (≈ 1.38 µM); MIC (Enterobacter cloacae): 0.13 µg/mL (≈ 0.359 µM); MIC (Enterococcus faecalis): 0.03 µg/mL (≈ 0.0828 µM); MIC (Serratia marcescens): 0.5 µg/mL (≈ 1.38 µM); MIC (Staphylococcus aureus [2]): 0.002 µg/mL (≈ 0.00552 µM); MIC (Escherichia coli [3]): 0.016 µg/mL (≈ 0.0441 µM); MIC (Morganella morganii): 0.25 µg/mL (≈ 0.69 µM)

Compound	MIC (Enterococcus faecium; [11]) [µg/mL]	MIC (Pseudomonas aeruginosa [1]; [12]) [µg/mL]	MIC (Enterobacter cloacae; [13]) [µg/mL]	MIC (Enterococcus faecalis; [14]) [µg/mL]	MIC (Serratia marcescens; [15]) [µg/mL]	MIC (Staphylococcus aureus [2]; [16]) [µg/mL]	MIC (Escherichia coli [3]; [17]) [µg/mL]	MIC (Morganella morganii; [18]) [µg/mL]	MIC (Klebsiella pneumoniae [4]; [19]) [µg/mL]	ED50 (Klebsiella pneumoniae [7]) [mg/kg]	ED50 (Escherichia coli [8]) [mg/kg]	ED50 (Pseudomonas aeruginosa [9]) [mg/kg]	ED50 (Staphylococcus aureus [10]) [mg/kg]	further results
CC(C)(C)n1cc(C(=O)O)c(=O)c2cc(F)c(N3CC[C@@H](N)C3)nc21	1 (≈ 2.87 µM)	0.25 (≈ 0.718 µM)	0.06 (≈ 0.172 µM)	0.13 (≈ 0.373 µM)	0.25 (≈ 0.718 µM)	0.015 (≈ 0.0431 µM)	0.06 (≈ 0.172 µM)	0.25 (≈ 0.718 µM)	0.13 (≈ 0.373 µM)					ED50 (Escherichia coli [5]): 4.9 mg/kg; ED50 (Klebsiella pneumoniae [6]): 4.9 mg/kg
CN[C@H]1CCN(c2nc3c(cc2F)c(=O)c(C(=O)O)cn3C(C)(C)C)C1	2 (≈ 5.52 µM)	0.25 (≈ 0.69 µM)	0.06 (≈ 0.166 µM)	1 (≈ 2.76 µM)	0.25 (≈ 0.69 µM)	0.015 (≈ 0.0414 µM)	0.03 (≈ 0.0828 µM)	0.25 (≈ 0.69 µM)	0.06 (≈ 0.166 µM)	2.6	1.2	6.1	0.31	
O=C(O)c1cn(C2CC2)c2cc(N3CCNCC3)c(F)cc2c1=O [CIPROFLOXACIN]	4 (≈ 12.1 µM)				0.03 (≈ 0.0905 µM)	0.06 (≈ 0.181 µM)		0.06 (≈ 0.181 µM)	0.06 (≈ 0.181 µM)	1.5	0.7	5	4	Cmax (in vivo): 5900 ng/mL
